In patent US10689327B2, “Prodrug amino acid derivative” (TAISHO PHARMACEUTICALS CO., LTD., priority 2016, dated 2020):

Experiment: Stability test in solution (pH 1.2 and pH 6.5)
Format: physicochemical
Conditions: 1 hour; for Compound's percent residue (%) pH 6.5: 20 mM phosphate buffer pH 6.5, 37° C.; for Compound's percent residue (%) pH 1.2: hydrochloric acid solution pH 1.2, 37° C.
Description: Test 2: Stability Test in Solution
A test to determine the stability of Inventive Compounds (I-A) or (I) in a hydrochloric acid solution (pH 1.2) and 20 mM phosphate buffer (pH 6.5) was conducted in accordance with the following method.
A compound was dissolved in a hydrochloric acid solution (pH 1.2) containing hydrochloric acid and sodium chloride or a 20 mM phosphate buffer (pH 6.5) containing disodium hydrogenphosphate, sodium dihydrogenphosphate and sodium chloride to prepare a solution with a concentration of about 50 ng/mL (near the saturated concentration when the compound was not dissolved). The solution was incubated at 37° C. for 1 hour and the compound's concentration before and after the incubation was quantified by high-performance liquid chromatography to calculate the percent residue of the compound. Compounds having low solubility were assessed as being not applicable.
The percent residues of representative compounds in the hydrochloric acid solution (pH 1.2) and the 20 mM phosphate buffer (pH 6.5) are shown in the following Table 2.

N[C@]1(C(=O)OCOC(=O)C23CC4CC(CC(C4)C2)C3)[C@H]2[C@@H](C[C@H]1OCc1ccc(F)c(F)c1)[C@]2(F)C(=O)O [Example 12, (1R,2R,3R,5R,6R)-2-Amino-3-[(3,4-difluorophenyl)methoxy]-6-fluoro-2-({[(tricyclo[3.3.1.1^3,7]decane-1-carbonyl)oxy]methoxy}carbonyl)bicyclo[3.1.0]hexane-6-carboxylic acid]
Compound's percent residue (%) pH 6.5: 102% | Compound's percent residue (%) pH 1.2: 101%

CC(OC(=O)O[C@H]1C[C@H]2CC[C@]1(C)C2(C)C)OC(=O)[C@@]1(N)[C@H]2[C@@H](C[C@H]1OCc1ccc(F)cc1)[C@]2(F)C(=O)O (single isomer, unassigned) [Example 19-B]
Compound's percent residue (%) pH 6.5: 106% | Compound's percent residue (%) pH 1.2: 100%

CCCO[C@@H]1C[C@@H]2[C@H]([C@]1(N)C(=O)OC(C)OC(=O)O[C@H]1C[C@@H](C)CC[C@@H]1C(C)C)[C@@]2(F)C(=O)O (stereo partly drawn) [Example 15-A, (1R,2R,3R,5R,6R)-2-Amino-6-fluoro-2-({1-[({[(1S,2R,5S)-5-methyl-2-(propan-2-yl)cyclohexyl]oxy}carbonyl)oxy]ethoxy}carbonyl)-3-propoxybicyclo[3.1.0]hexane-6-carboxylic acid]
Compound's percent residue (%) pH 6.5: 104% | Compound's percent residue (%) pH 1.2: 104%

CCCO[C@@H]1C[C@@H]2[C@H]([C@]1(N)C(=O)OC(C)OC(=O)O[C@@H]1C[C@@H]3CC[C@@]1(C)C3(C)C)[C@@]2(F)C(=O)O (stereo partly drawn) [Example 18-B, (1R,2R,3R,5R,6R)-2-Amino-6-fluoro-3-propoxy-2-({1-[({[(1S,2R,4S)-1,7,7-trimethylbicyclo[2.2.1]heptan-2-yl]oxy}carbonyl)oxy]ethoxy}carbonyl)bicyclo[3.1.0]hexane-6-carboxylic acid]
Compound's percent residue (%) pH 6.5: 112%

CC(OC(=O)O[C@@H]1C[C@@H]2CC[C@@]1(C)C2(C)C)OC(=O)[C@@]1(N)[C@H]2[C@@H](C[C@H]1OCc1ccc(F)cc1)[C@]2(F)C(=O)O (stereo partly drawn) [Example 17-B, (1R,2R,3R,5R,6R)-2-Amino-6-fluoro-3-[(4-fluorophenyl)methoxy]-2-({1-[({[(1S,2R,4S)-1,7,7-trimethylbicyclo[2.2.1]heptan-2-yl]oxy}carbonyl)oxy]ethoxy}carbonyl)bicyclo[3.1.0]hexane-6-carboxylic acid]
Compound's percent residue (%) pH 6.5: 100% | Compound's percent residue (%) pH 1.2: 106%

N[C@]1(C(=O)OCOC(=O)c2ccccc2)[C@H]2[C@@H](C[C@H]1OCc1ccc(F)cc1)[C@]2(F)C(=O)O [Example 36, (1R,2R,3R,5R,6R)-2-amino-2-{[(benzoyloxy)methoxy]carbonyl}-6-fluoro-3-[(4-fluorophenyl)methoxy]bicyclo[3.1.0]hexane-6-carboxylic acid]
Compound's percent residue (%) pH 6.5: 99% | Compound's percent residue (%) pH 1.2: 100%

CC(C)[C@@H]1CC[C@@H](C)C[C@H]1OC(=O)O[C@@H](C)OC(=O)[C@@]1(N)[C@H]2[C@@H](C[C@H]1OCc1ccc(F)cc1)[C@]2(F)C(=O)O [Example 2, (1R,2R,3R,5R,6R)-2-Amino-6-fluoro-3-[(4-fluorophenyl)methoxy]-2-({(1S)-1-[({[(1R,2S,5R)-5-methyl-2-(propan-2-yl)cyclohexyl]oxy}carbonyl)oxy]ethoxy}carbonyl)bicyclo[3.1.0]hexane-6-carboxylic acid]
Compound's percent residue (%) pH 6.5: 104%

CCCO[C@@H]1C[C@@H]2[C@H]([C@]1(N)C(=O)O[C@H](C)OC(=O)O[C@@H]1C[C@H](C)CC[C@H]1C(C)C)[C@@]2(F)C(=O)O [Example 14, (1R,2R,3R,5R,6R)-2-Amino-6-fluoro-2-({(1S)-1-[({[(1R,2S,5R)-5-methyl-2-(propan-2-yl)cyclohexyl]oxy}carbonyl)oxy]ethoxy}carbonyl)-3-propoxybicyclo[3.1.0]hexane-6-carboxylic acid]
Compound's percent residue (%) pH 6.5: 97% | Compound's percent residue (%) pH 1.2: 97%

CC(C)[C@@H]1CC[C@@H](C)C[C@H]1OC(=O)O[C@H](C)OC(=O)[C@@]1(N)[C@H]2[C@@H](C[C@H]1OCc1ccc(F)cc1)[C@]2(F)C(=O)O [Example 1, (1R,2R,3R,5R,6R)-2-amino-6-fluoro-3-[(4-fluorophenyl)methoxy]-2-({(1R)-1-[({[(1R,2S,5R)-5-methyl-2-(propan-2-yl)cyclohexyl]oxy}carbonyl)oxy]ethoxy}carbonyl)bicyclo[3.1.0]hexane-6-carboxylic acid]
Compound's percent residue (%) pH 6.5: 103% | Compound's percent residue (%) pH 1.2: 109%

Cc1ccc(CO[C@@H]2C[C@@H]3[C@H]([C@]2(N)C(=O)O[C@@H](C)OC(=O)O[C@@H]2C[C@H](C)CC[C@H]2C(C)C)[C@@]3(F)C(=O)O)cc1 [Example 34, (1R,2R,3R,5R,6R)-2-amino-6-fluoro-3-[(4-methylphenyl)methoxy]-2-({(1R)-1-[({[(1R,2S,5R)-5-methyl-2-(propan-2-yl)cyclohexyl]oxy}carbonyl)oxy]ethoxy}carbonyl)bicyclo[3.1.0]hexane-6-carboxylic acid]
Compound's percent residue (%) pH 6.5: 94% | Compound's percent residue (%) pH 1.2: 100%

CC(C)[C@@H]1CC[C@@H](C)C[C@H]1OC(=O)O[C@@H](C)OC(=O)[C@@]1(N)[C@H]2[C@@H](C[C@H]1OCc1ccc(F)c(F)c1)[C@]2(F)C(=O)O [Example 9, (1R,2R,3R,5R,6R)-2-Amino-3-[(3,4-difluorophenyl)methoxy]-6-fluoro-2-({(1S)-1-[({[(1R,2S,5R)-5-methyl-2-(propan-2-yl)cyclohexyl]oxy}carbonyl)oxy]ethoxy}carbonyl)bicyclo[3.1.0]hexane-6-carboxylic acid]
Compound's percent residue (%) pH 6.5: 116% | Compound's percent residue (%) pH 1.2: 115%

C[C@@H](OC(=O)C12CC3CC(CC(C3)C1)C2)OC(=O)[C@@]1(N)[C@H]2[C@@H](C[C@H]1OCc1cccc(Cl)n1)[C@]2(F)C(=O)O [Example 24, (1R,2R,3R,5R,6R)-2-amino-3-[(6-chloropyridin-2-yl)methoxy]-6-fluoro-2-({(1S)-1-[(tricyclo[3.3.1.1^3,7]decane-1-carbonyl)oxy]ethoxy}carbonyl)bicyclo[3.1.0]hexane-6-carboxylic acid]
Compound's percent residue (%) pH 6.5: 96% | Compound's percent residue (%) pH 1.2: 95%

C[C@@H](OC(=O)C12CC3CC(CC(C3)C1)C2)OC(=O)[C@@]1(N)[C@H]2[C@@H](C[C@H]1OCc1ccc(F)cc1)[C@@H]2C(=O)O [Example 38, (1S,2R,3R,5R,6S)-2-amino-3-[(4-fluorophenyl)methoxy]-2-({(1S)-1-[(tricyclo[3.3.1.1^3,7]decane-1-carbonyl)oxy]ethoxy}carbonyl)bicyclo[3.1.0]hexane-6-carboxylic acid]
Compound's percent residue (%) pH 6.5: 94% | Compound's percent residue (%) pH 1.2: 97%

CC(C)[C@@H]1CC[C@@H](C)C[C@H]1OC(=O)O[C@H](C)OC(=O)[C@@]1(N)[C@H]2[C@@H](C[C@H]1OCc1ccc(F)cc1)[C@@H]2C(=O)O [Example 39, (1S,2R,3R,5R,6S)-2-amino-3-[(4-fluorophenyl)methoxy]-2-({(1R)-1-[({[(1R,2S,5R)-5-methyl-2-(propan-2-yl)cyclohexyl]oxy}carbonyl)oxy]ethoxy}carbonyl)bicyclo[3.1.0]hexane-6-carboxylic acid]
Compound's percent residue (%) pH 1.2: 97%

CC(OC(=O)O[C@H]1C[C@H]2CC[C@]1(C)C2(C)C)OC(=O)[C@@]1(N)[C@H]2[C@@H](C[C@H]1OCc1ccc(F)cc1)[C@]2(F)C(=O)O (stereo partly drawn) [Example 19-A, (1R,2R,3R,5R,6R)-2-Amino-6-fluoro-3-[(4-fluorophenyl)methoxy]-2-({1-[({[(1R,2S,4R)-1,7,7-trimethylbicyclo[2.2.1]heptan-2-yl]oxy}carbonyl)oxy]ethoxy}carbonyl)bicyclo[3.1.0]hexane-6-carboxylic acid]
Compound's percent residue (%) pH 6.5: 99% | Compound's percent residue (%) pH 1.2: 98%

CC(OC(=O)O[C@H]1C(C)(C)[C@H]2CC[C@]1(C)C2)OC(=O)[C@@]1(N)[C@H]2[C@@H](C[C@H]1OCc1ccc(F)cc1)[C@]2(F)C(=O)O (stereo partly drawn) [Example 21, (1R,2R,3R,5R,6R)-2-Amino-6-fluoro-3-[(4-fluorophenyl)methoxy]-2-({1-[({[(1R,2R,4S)-1,3,3-trimethylbicyclo[2.2.1]heptan-2-yl]oxy}carbonyl)oxy]ethoxy}carbonyl)bicyclo[3.1.0]hexane-6-carboxylic acid]
Compound's percent residue (%) pH 6.5: 98% | Compound's percent residue (%) pH 1.2: 101%

N[C@]1(C(=O)OCOC(=O)C23CC4CC(CC(C4)C2)C3)[C@H]2[C@@H](C[C@H]1OCc1ccc(F)cc1)[C@]2(F)C(=O)O [Example 7, (1R,2R,3R,5R,6R)-2-Amino-6-fluoro-3-[(4-fluorophenyl)methoxy]-2-({[(tricyclo[3.3.1.1^3,7]decane-1-carbonyl)oxy]methoxy}carbonyl)bicyclo[3.1.0]hexane-6-carboxylic acid]
Compound's percent residue (%) pH 6.5: 106% | Compound's percent residue (%) pH 1.2: 101%

CC(OC(=O)O[C@@H]1C[C@@H]2CC[C@@]1(C)C2(C)C)OC(=O)[C@@]1(N)[C@H]2[C@@H](C[C@H]1OCc1ccc(F)cc1)[C@]2(F)C(=O)O (single isomer, unassigned) [Example 17-A]
Compound's percent residue (%) pH 6.5: 97% | Compound's percent residue (%) pH 1.2: 104%
